Laboratory results: patent publication US11059818B2, “Triazolopyridine inhibitors of myeloperoxidase” (BRISTOL-MYERS SQUIBB COMPANY, priority 2016, dated 2021)
pIC50: −log10 of the molar value.

Experiments:
myeloperoxidase [1] = target: T1, myeloperoxidase (Homo sapiens (Human), UniProt P05164); assay: MPO Peroxidation Assay (Amplex Red Assay); assay type: biochemical; conditions: potency range class
Method: MPO Peroxidation Assay (Amplex Red Assay)
MPO peroxidation activity was measured in 100 mM KPi (pH 7.4) by utilizing the non-fluorescent reagent Amplex Red (Invitrogen Cat. #A12222) which can be oxidized to the highly fluorescent resorufin. Amplex Red is oxidized by the peroxidase action of MPO to resorufin. Reactions were carried out in 50 μL total volume by adding a 25 μL mixture of 200 pM myeloperoxidase and 40 nM H2O2(Sigma #349887) to 100 nL inhibitor in 100% DMSO in a 384 well Perkin Elmer Optiplate. Enzyme and compound were preincubated for ten minutes at rt.
After the ten minute preincubation, 25 μL of an Amplex Red mixture containing 200 μM Amplex Red and 10 mM H2O2 was added to the plate. Kinetic determinations were carried out immediately on a Perkin Elmer Envision (15 minute kinetic read, Ex: 535 nm, Em: 590 nm).
IC50 values were calculated by determining the slope of the linear portion of the kinetic trace (180-540 secs), and using that calculated slope to determine % inhibition occurring at each concentration of inhibitor using the following equation:
(§1) [formula] where A=minimal Y value (activity level of inhibited sample), B=maximal Y value (activity level of uninhibited sample), C=Log IC50, D=Hill Slope, x=concentration of inhibitor. MPO Chlorination Assay (APF Assay)

myeloperoxidase [2] = target: T1, myeloperoxidase; assay: MPO Chlorination Assay (APF Assay); assay type: biochemical; conditions: potency range class
Method: as §1
MPO chlorination activity was measured in 100 mM KPi (pH 7.4) by utilizing the non-fluorescent reagent Aminophenyl fluorescein (APF, Invitrogen Cat. #A36003). APF is cleaved by (—OCl) to yield the fluorescent compound fluorescein. Reactions were carried out in 50 μL total volume by adding a 25 μL mixture of 200 pM myeloperoxidase and 120 mM NaCl to 100 nL inhibitor in 100% DMSO in a 384 well, non-binding surface clear bottom plate (Corning #3655). Enzyme, inhibitor, and chloride were preincubated for ten minutes at rt.
After the ten minute preincubation, 25 μL of an APF mixture containing […], 120 mM NaCl and 10 μM H2O2 was added to the plate using the internal dispensing system of a Hammatsu FDSS 6000. Kinetic determinations were carried out immediately on the FDSS 6000 (3 minute kinetic read, 1 read every second, ex: 485 nm, em: 535 nm). IC50 values for inhibitors were calculated by taking the slope of the linear portion of the kinetic measurement (20 seconds to ˜80-120 secs). […]
[formula] where A=minimal Y value (activity level of inhibited sample), B=maximal Y value (activity level of uninhibited sample), C=Log IC50, D=Hill Slope, x=concentration of inhibitor.

T1 sequence (P05164 49-745): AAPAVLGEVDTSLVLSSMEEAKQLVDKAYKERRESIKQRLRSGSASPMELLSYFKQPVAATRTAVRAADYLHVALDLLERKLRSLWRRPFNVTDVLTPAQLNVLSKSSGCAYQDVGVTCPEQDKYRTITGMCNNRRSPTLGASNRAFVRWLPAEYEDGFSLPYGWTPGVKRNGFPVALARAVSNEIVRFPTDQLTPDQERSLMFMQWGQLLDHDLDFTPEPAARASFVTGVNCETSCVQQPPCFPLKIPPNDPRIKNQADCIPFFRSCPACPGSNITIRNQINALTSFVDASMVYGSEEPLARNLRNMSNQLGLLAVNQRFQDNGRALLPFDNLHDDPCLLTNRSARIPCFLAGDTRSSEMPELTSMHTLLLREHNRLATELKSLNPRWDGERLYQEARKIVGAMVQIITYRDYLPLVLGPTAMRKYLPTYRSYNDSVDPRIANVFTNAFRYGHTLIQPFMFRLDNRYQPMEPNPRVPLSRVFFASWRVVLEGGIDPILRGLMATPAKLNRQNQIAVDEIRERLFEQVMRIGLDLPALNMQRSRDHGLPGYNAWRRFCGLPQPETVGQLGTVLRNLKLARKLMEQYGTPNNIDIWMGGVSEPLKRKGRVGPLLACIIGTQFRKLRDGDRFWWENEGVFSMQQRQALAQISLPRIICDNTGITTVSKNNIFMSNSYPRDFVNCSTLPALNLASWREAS

Row | Structure (SMILES) | pIC50 (myeloperoxidase [1]) | pIC50 (myeloperoxidase [2])
1 | Nc1cc(C(CCN[C@H]2CC[C@H](c3ccccc3)CC2)c2cnn(Cc3cccc4ccccc34)c2)c2nn[nH]c2n1 (stereo partly drawn) [Example 24, 7-{1-[1-(Naphthalen-1-ylmethyl)-1H-pyrazol-4-yl]-3-{[trans-4-phenylcyclohexyl]amino}propyl}-3H-[1,2,3]triazolo[4,5-b]pyridin-5-amine] | 6.00 to 7.00 | 7.00 to 9.00
2 | Nc1cc(C(CCN[C@H]2CC[C@H](c3ccccc3)CC2)c2cnn(Cc3cccc(OC(F)F)c3)c2)c2nn[nH]c2n1 (stereo partly drawn) [Example 25, 7-[1-(1-{[3-(Difluoromethoxy)phenyl]methyl}-1H-pyrazol-4-yl)-3-{[trans-4-phenylcyclohexyl]amino}propyl]-3H-[1,2,3]triazolo[4,5-b]pyridin-5-amine] | 6.00 to 7.00 | 7.00 to 9.00
3 | Nc1cc(C(CCN[C@H]2CC[C@H](c3ccccc3)CC2)c2cnn(Cc3cc(F)cc(F)c3)c2)c2nn[nH]c2n1 (stereo partly drawn) [Example 26, 7-(1-{1-[(3,5-Difluorophenyl)methyl]-1H-pyrazol-4-yl}-3-{[trans-4-phenylcyclohexyl]amino}propyl)-3H-[1,2,3]triazolo[4,5-b]pyridin-5-amine] | 6.00 to 7.00 | 7.00 to 9.00
4 | Nc1cc(C(CCN[C@H]2CC[C@H](c3ccccc3)CC2)c2cnn(C3CCC3(F)F)c2)c2nn[nH]c2n1 (stereo partly drawn) [Example 28, 7-{1-[1-(2,2-Difluorocyclobutyl)-1H-pyrazol-4-yl]-3-{[trans-4-phenylcyclohexyl]amino}propyl}-3H-[1,2,3]triazolo[4,5-b]pyridin-5-amine] | 6.00 to 7.00 | 7.00 to 9.00
5 | Nc1cc(C(CCN[C@H]2CC[C@H](c3ccccc3)CC2)c2cnn(C3CC(F)C3(F)F)c2)c2nn[nH]c2n1 (stereo partly drawn) [Example 29, 7-(3-{[trans-4-phenylcyclohexyl]amino}-1-[1-(2,2,3-trifluorocyclobutyl)-1H-pyrazol-4-yl]propyl)-3H-[1,2,3]triazolo[4,5-b]pyridin-5-amine] | 6.00 to 7.00 | 7.00 to 9.00
6 | Nc1cc(C(CCN[C@H]2CC[C@H](c3ccccc3)CC2)c2cnn(CCC(F)(F)F)c2)c2nn[nH]c2n1 (stereo partly drawn) [Example 30, 7-(3-{[trans-4-Phenylcyclohexyl]amino}-1-[1-(3,3,3-trifluoropropyl)-1H-pyrazol-4-yl]propyl)-3H-[1,2,3]triazolo[4,5-b]pyridin-5-amine] | 6.00 to 7.00 | 7.00 to 9.00
7 | Nc1cc(C(CCN[C@H]2CC[C@H](c3ccccc3)CC2)c2cnn(Cc3cccc(C(F)(F)F)c3)c2)c2nn[nH]c2n1 (stereo partly drawn) [Example 31, 7-(3-{[trans-4-Phenylcyclohexyl]amino}-1-(1-{[3-(trifluoromethyl)phenyl]methyl}-1H-pyrazol-4-yl)propyl)-3H-[1,2,3]triazolo[4,5-b]pyridin-5-amine] | 6.00 to 7.00 | 7.00 to 9.00
8 | Nc1cc(C(CCN[C@H]2CC[C@H](c3ccccc3)CC2)c2cnn(C3CC3)c2)c2nn[nH]c2n1 (stereo partly drawn) [Example 32, 7-[1-(1-Cyclopropyl-1H-pyrazol-4-yl)-3-{[trans-4-phenylcyclohexyl]amino}propyl]-3H-[1,2,3]triazolo[4,5-b]pyridin-5-amine] | 5.00 to 6.00 | 6.00 to 7.00
9 | Nc1cc([C@H](CCN[C@H]2CC[C@H](c3ccccc3)CC2)c2cnn(Cc3cccc(OC(F)F)c3)c2)c2nn[nH]c2n1 [Example 33A, 7(S)-[1-(1-{[3-(Difluoromethoxy)phenyl]methyl}-1H-pyrazol-4-yl)-3-{[trans-4-phenylcyclohexyl]amino}propyl]-3H-[1,2,3]triazolo[4,5-b]pyridin-5-amine] | 5.00 to 6.00 | 6.00 to 7.00
10 | Nc1cc([C@@H](CCN[C@H]2CC[C@H](c3ccccc3)CC2)c2cnn(Cc3cccc(OC(F)F)c3)c2)c2nn[nH]c2n1 [Example 33B, 7(R)-[1-(1-{[3-(Difluoromethoxy)phenyl]methyl}-1H-pyrazol-4-yl)-3-{[trans-4-phenylcyclohexyl]amino}propyl]-3H-[1,2,3]triazolo[4,5-b]pyridin-5-amine] | 7.00 to 9.00 | 7.00 to 9.00
11 | Nc1cc(C(CCN[C@H]2CC[C@H](c3ccccc3)CC2)c2cccnc2)c2nn[nH]c2n1 (stereo partly drawn) [Example 34, 7-[1-(Pyridin-3-yl)-3-{[trans-4-phenylcyclohexyl]amino}propyl]-3H-[1,2,3]triazolo[4,5-b]pyridin-5-amine] | 6.00 to 7.00 | 7.00 to 9.00
12 | Nc1cc(C(CCN[C@H]2CC[C@H](c3ccccc3)CC2)c2cc[nH]c(=O)c2)c2nn[nH]c2n1 (stereo partly drawn) [Example 35, 4-(1-{5-Amino-3H-[1,2,3]triazolo[4,5-b]pyridin-7-yl}-3-{[trans-4-phenylcyclohexyl]amino}propyl)-1,2-dihydropyridin-2-one] | 6.00 to 7.00 | 7.00 to 9.00
13 | Nc1cc(C(CCN[C@H]2CC[C@H](c3ccccc3)CC2)c2cc[nH]n2)c2nn[nH]c2n1 (stereo partly drawn) [Example 36, 7-[1-(1H-Pyrazol-3-yl)-3-{[trans-4-phenylcyclohexyl]amino}propyl]-3H-[1,2,3]triazolo[4,5-b]pyridin-5-amine] | 5.00 to 6.00 | 6.00 to 7.00
14 | Nc1cc(C(CCN[C@@H]2C[C@@H](Cc3ccccc3)[C@H](O)C2)c2cnn(Cc3cccc(O)c3)c2)c2nn[nH]c2n1 (stereo partly drawn) [Example 42, 3-{[4-(1-{5-Amino-3H-[1,2,3]triazolo[4,5-b]pyridin-7-yl}-3-{[(1R,3R,4R)-3-benzyl-4-hydroxycyclopentyl]amino}propyl)-1H-pyrazol-1-yl]methyl}phenol] | 7.00 to 9.00 | 7.00 to 9.00
15 | Nc1cc(C(CCN2C[C@H](Cc3ccccc3)[C@@H](O)C2)c2cnn(Cc3cccc(O)c3)c2)c2nn[nH]c2n1 (stereo partly drawn) [Example 43] | 5.00 to 6.00 | 7.00 to 9.00
16 | Nc1cc(C(CCN[C@H]2CC[C@H](c3ccccc3)CC2)c2cncc(F)c2)c2nn[nH]c2n1 (stereo partly drawn) [Example 44] | 5.00 to 6.00 | 6.00 to 7.00
17 | Nc1cc(C(CCN[C@H]2CC[C@H](c3ccccc3)CC2)c2ccc(F)nc2)c2nn[nH]c2n1 (stereo partly drawn) [Example 45] | 6.00 to 7.00 | 6.00 to 7.00
18 | Nc1cc(C(CCNCc2ccccc2)c2cnn(Cc3cccc(O)c3)c2)c2nn[nH]c2n1 (stereo not drawn) [Example 46] | 6.00 to 7.00 | 6.00 to 7.00
19 | CCC(c1cnn(Cc2cccc(O)c2)c1)c1cc(N)nc2[nH]nnc12 (stereo not drawn) [Example 47] | 6.00 to 7.00 | 6.00 to 7.00
20 | Nc1cc(C(CCNCc2cccc(CO)c2)c2cnn(Cc3cccc(O)c3)c2)c2nn[nH]c2n1 (stereo not drawn) [Example 48] | 5.00 to 6.00 | 6.00 to 7.00
21 | Nc1cc(C(CCNCc2cccc(O)c2)c2cnn(Cc3cccc(O)c3)c2)c2nn[nH]c2n1 (stereo not drawn) [Example 49] | 5.00 to 6.00 | 6.00 to 7.00
22 | Nc1cc(C(CCNC23CCC(c4ccccc4)(CC2)CC3)c2cnn(CCc3cccc(O)c3)c2)c2nn[nH]c2n1 (stereo not drawn) [Example 50] | 6.00 to 7.00 | 7.00 to 9.00
23 | Nc1cc(C(CCNC23CCC(c4ccccc4)(CC2)[C@H](O)C3)c2cnn(Cc3cccc(O)c3)c2)c2nn[nH]c2n1 (stereo partly drawn) [Example 51] | 7.00 to 9.00 | 7.00 to 9.00
24 | Nc1cc(C(CCNC23CCC(c4ccccc4)(CC2)[C@@H](O)C3)c2cnn(Cc3cccc(O)c3)c2)c2nn[nH]c2n1 (stereo partly drawn) [Example 52] | 7.00 to 9.00 | 7.00 to 9.00
25 | Nc1cc(C(CCN[C@@H]2CC[C@@H](Cc3ccccc3)C2)c2cnn(CCc3cccc(O)c3)c2)c2nn[nH]c2n1 (stereo partly drawn) [Example 53] | 5.00 to 6.00 | 6.00 to 7.00
26 | Nc1cc(C(CCN[C@H]2C[C@H](Cc3ccccc3)[C@@H](O)C2)c2cnn(CCc3cccc(O)c3)c2)c2nn[nH]c2n1 (stereo partly drawn) [Example 54] | 5.00 to 6.00 | 6.00 to 7.00
27 | Nc1cc(C(CCO)c2cnn(Cc3cccc(OC4CCC(N)C4)c3)c2)c2nn[nH]c2n1 (stereo not drawn) [Example 55] | 6.00 to 7.00 | 6.00 to 7.00
